19 compounds from patent publication US9315503B2, “Kinase inhibitors” (CHIESI FARMACEUTICI S.p.A., priority 2011, dated 2016) can be followed below.

Structures can show the parent of a compound that is named as a salt.

As a reminder, the IC50 is the concentration at which inhibition is half-maximal.

T1 sequence (Q16539 whole entry): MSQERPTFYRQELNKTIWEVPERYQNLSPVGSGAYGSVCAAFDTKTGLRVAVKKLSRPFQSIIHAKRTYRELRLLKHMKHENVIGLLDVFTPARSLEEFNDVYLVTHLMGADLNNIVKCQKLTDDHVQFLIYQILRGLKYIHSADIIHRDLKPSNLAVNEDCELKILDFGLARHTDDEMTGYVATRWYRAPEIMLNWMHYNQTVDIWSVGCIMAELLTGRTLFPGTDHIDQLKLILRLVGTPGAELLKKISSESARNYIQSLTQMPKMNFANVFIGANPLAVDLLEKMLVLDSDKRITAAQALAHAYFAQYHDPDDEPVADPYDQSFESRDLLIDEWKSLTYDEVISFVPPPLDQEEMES

The test has as its target T1, p38alpha (Homo sapiens, UniProt Q16539).
T1 construct: purchased Invitrogen PV3304
The test can be described thus: P38Alpha enzyme inhibition assay (Alphascreen kinase activity assay). The class given is biochemical. As to conditions: 100 pM p38alpha, 250 μM ATP, 2 hours pre-incubation at 25° C., read-out: p38α inhibition (IC50 values). The protocol:
P38Alpha Enzyme Inhibition Assay.
The inhibitory activity of compounds was determined using an Alphascreen® (Perkin Elmer) based kinase activity assay. Kinase reactions consisted of 25 mM HEPES pH 7.5, 10 mM MgCl2, 100 μM Na3VO4, 2 mM DTT, 0.05 mg/ml Tween 20, 100 pM p38alpha (Invitrogen, PV3304), 1% DMSO and 0.3 μg/ml ATF-2 fusion protein (New England Biolabs, 9224). Compounds were incubated under these conditions for 2 hours, at 25° C., prior to the initiation of the kinase activity by the addition of the 250 μM ATP. Reaction volumes were 20 uL. After 1 hr at 25° C. reactions were stopped by the adding 10 uL of 25 mM HEPES pH 7.5 containing 62.5 mM EDTA, 0.05% Triton X-100, 10% BSA and 0.83 ng/uL anti-phospho-ATF2 antibody (Abeam, ab28812). Detection was performed by measuring luminescence following the addition of Alphascreen Donor beads (Perkin Elmer 6765300) and Protein A Alphascreen Acceptor beads (Perkin Elmer 6760137), both at a final concentration of 20 ug/ml. IC50 values were determined from concentration-response curves.
In general terms: Bead proximity is the source of the signal in Alpha formats.
Consider `Cc1ccc(-n2nc(C(C)(C)C)cc2NC(=O)N[C@H]2CC[C@@H](Oc3ccc4nnc([C@@H]5CCCN5)n4c3)c3ccccc32)cc1` [Example 6, 1-(5-tert-Butyl-2-p-tolyl-2H-pyrazol-3-yl)-3-[(1S,4R)-4-((S)-3-pyrrolidin-2-yl-[1,2,4]triazolo[4,3-a]pyridin-6-yloxy)-1,2,3,4-tetrahydro-naphthalen-1-yl]-urea], for which the IC50 was below 10 nM.

On to `Cc1ccc(-n2nc(C(C)(C)C)cc2NC(=O)N[C@H]2CC[C@@H](OCCN3CCOCC3)c3ccccc32)cc1` [Example 32, 1-(5-tert-Butyl-2-p-tolyl-2H-pyrazol-3-yl)-3-[(1S,4R)-4-(2-morpholin-4-yl-ethoxy)-1,2,3,4-tetrahydro-naphthalen-1-yl]-urea], for which the IC50 was 100 to 500 nM. With `Cc1ccc(-n2nc(C(C)(C)C)cc2NC(=O)N[C@H]2CC[C@@H](Oc3ccc4nnc(N(C)CCN5CCOCC5)n4c3)c3ccccc32)cc1` [Example 45, 1-(5-tert-Butyl-2-p-tolyl-2H-pyrazol-3-yl)-3-((1S,4R)-4-{3-[methyl-(2-morpholin-4-yl-ethyl)-amino]-[1,2,4]triazolo[4,3-a]pyridin-6-yloxy}-1,2,3,4-tetrahydro-naphthalen-1-yl)-urea], the half-maximal inhibitory concentration (IC50) was below 10 nM. With `Cc1ccc(-c2nc(C(C)(C)C)[nH]c2NC(=O)N[C@H]2CC[C@@H](Oc3ccc4nnc(N5CCCCC5)n4c3)c3ccccc32)cc1` [Example 51, 1-(2-tert-Butyl-5-p-tolyl-3H-imidazol-4-yl)-3-[(1S,4R)-4-(3-piperidin-1-yl-[1,2,4]triazolo[4,3-a]pyridin-6-yloxy)-1,2,3,4-tetrahydro-naphthalen-1-yl]-urea] the figure was below 10 nM; with `Cc1ccc(-n2nc(C(C)(C)C)cc2NC(=O)N[C@H]2CC[C@@H](Oc3ccc4nnc(CN5CCN(C)C(CO)C5)n4c3)c3ccccc32)cc1` (stereo partly drawn) [Example 56, 1-(5-tert-Butyl-2-p-tolyl-2H-pyrazol-3-yl)-3-{(1S,4R)-4-[3-(3-hydroxymethyl-4-methyl-piperazin-1-ylmethyl)-[1,2,4]triazolo[4,3-a]pyridin-6-yloxy]-1,2,3,4-tetrahydro-naphthalen-1-yl}-urea], below 10 nM. With `Cc1ccc(-n2nc(C(C)(C)C)cc2NC(=O)N[C@H]2CC[C@@H](Oc3ccc4nnc([C@@H]5C[C@@H](F)CN5C)n4c3)c3ccccc32)cc1` [Example 91, 1-(5-tert-Butyl-2-p-tolyl-2H-pyrazol-3-yl)-3-{(1S,4R)-4-[3-((2S,4R)-4-fluoro-1-methyl-pyrrolidin-2-yl)-[1,2,4]triazolo[4,3-a]pyridin-6-yloxy]-1,2,3,4-tetrahydro-naphthalen-1-yl}-urea] the figure was below 10 nM; with `C[C@H]1CCCCN1c1nnc2ccc(O[C@@H]3CC[C@H](NC(=O)Nc4cc(C(C)(C)C)nn4-c4cccc(CCN5CCOCC5)c4)c4ccccc43)cn12` [Example 131, 1-{5-tert-Butyl-2-[3-(2-morpholin-4-yl-ethyl)-phenyl]-2H-pyrazol-3-yl}-3-{(1S,4R)-4-[3-((S)-2-methyl-piperidin-1-yl)-[1,2,4]triazolo[4,3-a]pyridin-6-yloxy]-1,2,3,4-tetrahydro-naphthalen-1-yl}-urea formate salt], below 10 nM. With `C[C@H]1CCCCN1c1nnc2ccc(O[C@@H]3CC[C@H](NC(=O)Nc4cc(C(C)(C)C)nn4-c4cccc(CCN5CCCC5)c4)c4ccccc43)cn12` [Example 132, 1-{5-tert-Butyl-2-[3-(2-pyrrolidin-1-yl-ethyl)-phenyl]-2H-pyrazol-3-yl}-3-{(1S,4R)-4-[3-((S)-2-methyl-piperidin-1-yl)-[1,2,4]triazolo[4,3-a]pyridin-6-yloxy]-1,2,3,4-tetrahydro-naphthalen-1-yl}-urea formate salt] the figure was below 10 nM; with `CCN(C)CCc1cccc(-n2nc(C(C)(C)C)cc2NC(=O)N[C@H]2CC[C@@H](Oc3ccc4nnc(N5CCCC[C@@H]5C)n4c3)c3ccccc32)c1` [Example 133, 1-(5-tert-Butyl-2-{3-[2-(ethyl-methyl-amino)-ethyl]-phenyl}-2H-pyrazol-3-yl)-3-{(1S,4R)-4-[3-((S)-2-methyl-piperidin-1-yl)-[1,2,4]triazolo[4,3-a]pyridin-6-yloxy]-1,2,3,4-tetrahydro-naphthalen-1-yl}-urea formate salt], below 10 nM; with `C[C@H]1CCCCN1c1nnc2ccc(O[C@@H]3CC[C@H](NC(=O)Nc4cc(C(C)(C)C)nn4-c4cccc(CCN(C)C)c4)c4ccccc43)cn12` [Example 134, 1-{5-tert-Butyl-2-[3-(2-dimethylamino-ethyl)-phenyl]-2H-pyrazol-3-yl}-3-{(1S,4R)-4-[3-((S)-2-methyl-piperidin-1-yl)-[1,2,4]triazolo[4,3-a]pyridin-6-yloxy]-1,2,3,4-tetrahydro-naphthalen-1-yl}-urea formate salt], below 10 nM. For the compound `C[C@H]1CCCCN1c1nnc2ccc(O[C@@H]3CC[C@H](NC(=O)Nc4cc(C(C)(C)C)nn4-c4cccc(CCN5CCCCC5)c4)c4ccccc43)cn12` [Example 135, 1-{5-tert-Butyl-2-[3-(2-piperidin-1-yl-ethyl)-phenyl]-2H-pyrazol-3-yl}-3-{(1S,4R)-4-[3-((S)-2-methyl-piperidin-1-yl)-[1,2,4]triazolo[4,3-a]pyridin-6-yloxy]-1,2,3,4-tetrahydro-naphthalen-1-yl}-urea formate salt], the IC50 is below 10 nM. Turning to `C[C@H]1CCCCN1c1nnc2ccc(O[C@@H]3CC[C@H](NC(=O)Nc4cc(C(C)(C)C)nn4-c4cccc(CCN5CCN(C)CC5)c4)c4ccccc43)cn12` [Example 136, 1-(5-tert-Butyl-2-{3-[2-(4-methyl-piperazin-1-yl)-ethyl]-phenyl}-2H-pyrazol-3-yl)-3-{(1S,4R)-4-[3-((S)-2-methyl-piperidin-1-yl)-[1,2,4]triazolo[4,3-a]pyridin-6-yloxy]-1,2,3,4-tetrahydro-naphthalen-1-yl}-urea formate salt], the IC50 was below 10 nM. With `C[C@H]1CCCCN1c1nnc2ccc(O[C@@H]3CC[C@H](NC(=O)Nc4cc(C(C)(C)C)nn4-c4cccc(CCN5CCCOCC5)c4)c4ccccc43)cn12` [Example 137, 1-{5-tert-Butyl-2-[3-(2-[1,4]oxazepan-4-yl-ethyl)-phenyl]-2H-pyrazol-3-yl}-3-{(1S,4R)-4-[3-((S)-2-methyl-piperidin-1-yl)-[1,2,4]triazolo[4,3-a]pyridin-6-yloxy]-1,2,3,4-tetrahydro-naphthalen-1-yl}-urea formate salt] the figure was below 10 nM. With `C[C@H]1CCCCN1c1nnc2ccc(O[C@@H]3CC[C@H](NC(=O)Nc4cc(C(C)(C)C)nn4-c4cccc(CCN5CCCN(C)CC5)c4)c4ccccc43)cn12` [Example 138, 1-(5-tert-Butyl-2-{3-[2-(4-methyl-[1,4]diazepan-1-yl)-ethyl]-phenyl}-2H-pyrazol-3-yl)-3-{(1S,4R)-4-[3-((S)-2-methyl-piperidin-1-yl)-[1,2,4]triazolo[4,3-a]pyridin-6-yloxy]-1,2,3,4-tetrahydro-naphthalen-1-yl}-urea formate salt] the figure was below 10 nM; with `C[C@H]1COCCN1c1nnc2ccc(O[C@@H]3CC[C@H](NC(=O)Nc4cc(C(C)(C)C)nn4CCO)c4ccccc43)cn12` [Example 139, 1-[5-tert-Butyl-2-(2-hydroxy-ethyl)-2H-pyrazol-3-yl]-3-{(1S,4R)-4-[3-((S)-3-methyl-morpholin-4-yl)-[1,2,4]triazolo[4,3-a]pyridin-6-yloxy]-1,2,3,4-tetrahydro-naphthalen-1-yl}-urea], below 10 nM; with `C[C@H]1CCCCN1c1nnc2ccc(O[C@@H]3CC[C@H](NC(=O)Nc4cc(C(C)(C)C)nn4-c4ccnc(N(C)CCN(C)C)n4)c4ccccc43)cn12` [Example 140], below 10 nM. Take `C[C@H]1COCCN1c1nnc2ccc(O[C@@H]3CC[C@H](NC(=O)Nc4cc(C(C)(C)C)nn4-c4cccc(OCCN(C)C)c4)c4ccccc43)cn12` [Example 141, 1-{5-tert-Butyl-2-[3-(2-dimethylamino-ethoxy)-phenyl]-2H-pyrazol-3-yl}-3-{(1S,4R)-4-[3-((S)-3-methyl-morpholin-4-yl)-[1,2,4]triazolo[4,3-a]pyridin-6-yloxy]-1,2,3,4-tetrahydro-naphthalen-1-yl}-urea formate salt]: the concentration for half-maximal inhibition (IC50) is below 10 nM.

With `C[C@H]1COCCN1c1nnc2ccc(O[C@@H]3CC[C@H](NC(=O)Nc4cc(C(C)(C)C)nn4CCN4CCOCC4)c4ccccc43)cn12` [Example 142, 1-[5-tert-Butyl-2-(2-morpholin-4-yl-ethyl)-2H-pyrazol-3-yl]-3-{(1S,4R)-4-[3-((S)-3-methyl-morpholin-4-yl)-[1,2,4]triazolo[4,3-a]pyridin-6-yloxy]-1,2,3,4-tetrahydro-naphthalen-1-yl}-urea formate salt], the IC50 is below 10 nM. With `C[C@@H]1CCC[C@H](C)N1c1nnc2ccc(O[C@@H]3CC[C@H](NC(=O)Nc4cc(C(C)(C)C)nn4-c4cccc(CN5CCN(C)CC5)c4)c4ccccc43)cn12` [Example 143, 1-{5-tert-Butyl-2-[3-(4-methyl-piperazin-1-ylmethyl)-phenyl]-2H-pyrazol-3-yl}-3-{(1S,4R)-4-[3-((2S,6R)-2,6-dimethyl-piperidin-1-yl)-[1,2,4]triazolo[4,3-a]pyridin-6-yloxy]-1,2,3,4-tetrahydro-naphthalen-1-yl}-urea formate salt] the figure was below 10 nM.
